Results from US20240116985A1, “STAPLED PEPTIDES AND METHODS THEREOF” (priority 2020, published 2024).
Like-named read-outs stand apart in the source and are kept apart here.

Key:
[1] = molecular target: T1, beta-catenin/TCF4 engagement (Homo sapiens, UniProt P35222); assay: Nano-BRET target engagement assay (B-cat-Halo & TCF4-Luc in HEK293 cells); assay type: cell-based
T1 construct: expressed in transfected cells; host or cells: HEK293
T1 sequence (P35222 1-781): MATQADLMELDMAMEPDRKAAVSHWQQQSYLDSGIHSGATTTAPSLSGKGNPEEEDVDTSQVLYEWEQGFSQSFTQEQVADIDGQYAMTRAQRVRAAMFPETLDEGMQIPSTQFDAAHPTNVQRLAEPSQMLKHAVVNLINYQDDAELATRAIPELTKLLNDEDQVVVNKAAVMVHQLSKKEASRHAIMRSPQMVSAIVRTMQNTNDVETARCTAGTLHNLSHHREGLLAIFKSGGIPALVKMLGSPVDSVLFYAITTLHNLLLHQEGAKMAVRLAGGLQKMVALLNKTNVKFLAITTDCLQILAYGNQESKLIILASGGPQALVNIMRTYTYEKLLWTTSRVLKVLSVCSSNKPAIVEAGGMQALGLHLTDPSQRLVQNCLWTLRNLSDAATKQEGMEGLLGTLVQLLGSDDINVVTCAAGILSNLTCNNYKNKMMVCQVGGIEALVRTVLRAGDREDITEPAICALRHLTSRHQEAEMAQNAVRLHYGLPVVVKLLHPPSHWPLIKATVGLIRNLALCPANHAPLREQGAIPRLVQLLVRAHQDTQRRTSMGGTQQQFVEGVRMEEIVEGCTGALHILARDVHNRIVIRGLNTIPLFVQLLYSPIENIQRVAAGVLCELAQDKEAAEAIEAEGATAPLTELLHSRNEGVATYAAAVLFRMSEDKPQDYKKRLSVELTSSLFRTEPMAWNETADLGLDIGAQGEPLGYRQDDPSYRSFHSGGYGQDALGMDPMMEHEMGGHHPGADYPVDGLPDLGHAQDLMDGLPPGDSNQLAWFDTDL

[2] = molecular target: T2, full-length beta-Catenin (Uniprot ID P35222) (Homo sapiens, UniProt P35222); assay: Fluorescence polarization IC50 (beta-catenin / 5FAM-TCF4 10-53 competition); assay type: binding
T2 construct: 10 nM full-length beta-Catenin (Uniprot ID P35222)
T2 sequence (P35222 1-781): T1 sequence (P35222 1-781)

[3] = absolute IC50, read-out: NanoBRET Abs IC50
[4] = fluorescence polarization, read-out: beta-Catenin FP IC50

Row | Structure (SMILES) | IC50 [1, 3] | IC50 [2, 4] | also measured
1 | CC(=O)N1CCC[C@]12CCCCCCC1(CCCCCCCCOC(=O)N3CC[C@@](C(=O)N[C@@H](Cc4ccsc4)C(=O)N[C@@H](Cc4csc5ccccc45)C(=O)N[C@@H](CCC(N)=O)C(N)=O)(C3)NC(=O)[C@H](CC(C)C)NC(=O)[C@H](Cc3ccccc3)NC(=O)[C@H](C)NC(=O)[C@H](C)NC(=O)[C@H](CC(=O)O)NC(=O)[C@H](CC(=O)O)NC1=O)NC(=O)[C@H](CC(C)(C)C)NC(=O)[C@H](CC(=O)O)NC2=O (stereo partly drawn) [I-1808, Ac-PL3-Asp-Npg-B5-Asp-Asp-Ala-Ala-Phe-Leu-PyrS2-3Thi-BztA-Gln-NH2] | 14 µM | 0.09 µM | 
2 | CC(=O)N1CCC[C@]12CC=CCCCC1(CCCC=CCCCOC(=O)N3CC[C@@](C(=O)N[C@@H](Cc4ccsc4)C(=O)N[C@@H](Cc4csc5ccccc45)C(=O)N[C@@H](CC(C)C)C(N)=O)(C3)NC(=O)[C@H](CC(C)C)NC(=O)[C@H](Cc3ccccc3)NC(=O)[C@H](C)NC(=O)[C@H](C)NC(=O)[C@H](CC(=O)O)NC(=O)[C@H](CC(=O)O)NC1=O)NC(=O)[C@H](CC(C)C)NC(=O)[C@H](CC(=O)O)NC2=O (stereo partly drawn) [I-1410, Ac-PL3-Asp-Leu-B5-Asp-Asp-Ala-Ala-Phe-Leu-PyrS2-3Thi-BztA-Leu-NH2] |  |  | IC50 ([1]; NanoBRET Abs IC50, absolute IC50): 29.3 µM; IC50 ([2]; beta-Catenin FP IC50, fluorescence polarization): 0.08 µM
3 | CC(=O)N1CCC[C@]12CC=CCCCC1(CCCC=CCCCOC(=O)N3CC[C@@](C(=O)N[C@@H](Cc4ccsc4)C(=O)N[C@@H](Cc4csc5ccccc45)C(=O)N[C@@H](CC(N)=O)C(=O)N[C@@H](C)C(=O)NC(C)(C)C(=O)N[C@@H](C)C(=O)NC(C)(C)C(=O)N[C@@H](C)C(=O)NC(C)(C)C(=O)N[C@@H](C)C(N)=O)(C3)NC(=O)[C@H](CC(C)C)NC(=O)[C@H](Cc3ccccc3)NC(=O)[C@H](C)NC(=O)[C@H](C)NC(=O)[C@H](Cc3cccc(C(=O)O)c3)NC(=O)[C@H](CC(=O)O)NC1=O)NC(=O)[C@H](CC(C)(C)C)NC(=O)[C@H](CC(=O)O)NC2=O (stereo partly drawn) [I-2273, Ac-PL3-Asp-Npg-B5-Asp-3COOHF-Ala-Ala-Phe-Leu-PyrS2-3Thi-BztA-Asn-Ala-Aib-Ala-Aib-Ala-Aib-Ala-NH2] | 6.2 µM | 0.107 µM | 
4 | CC(=O)N1CCC[C@]12CC=CCCCC1(CCCC=CCCCOC(=O)N3CC[C@@](C(=O)N[C@@H](Cc4ccsc4)C(=O)N[C@@H](Cc4csc5ccccc45)C(=O)N[C@@H](Cc4ccccc4)C(N)=O)(C3)NC(=O)[C@H]([C@@H](C)O)NC(=O)[C@H](Cc3ccccc3)NC(=O)[C@H](C)NC(=O)[C@H](CCCCNC(C)C)NC(=O)[C@H](CN(CC(=O)O)CC(F)(F)F)NC(=O)[C@H](CC(=O)O)NC1=O)NC(=O)[C@H](CC(C)(C)C)NC(=O)[C@H](CC(=O)O)NC2=O (stereo partly drawn) [I-1762, Ac-PL3-Asp-Npg-B5-Asp-TfeGA-iPrLys-Ala-Phe-Thr-PyrS2-3Thi-BztA-Phe-NH2] | > 20 µM | 0.013 µM | 
5 | CC(=O)N1CCC[C@]12CC=CCCCC1(CCCC=CCOC(=O)N3CC[C@@](C(=O)N[C@@H](Cc4ccsc4)C(=O)N[C@@H](Cc4csc5ccccc45)C(=O)N[C@@H](CCC(N)=O)C(N)=O)(C3)NC(=O)[C@H](CC(C)C)NC(=O)[C@H](Cc3ccccc3)NC(=O)[C@H](C)NC(=O)[C@H](C)NC(=O)[C@H](CC(=O)O)NC(=O)[C@H](CC(=O)O)NC1=O)NC(=O)[C@H](CC(C)(C)C)NC(=O)[C@H](CC(=O)O)NC2=O (stereo partly drawn) [I-1818, Ac-PL3-Asp-Npg-B5-Asp-Asp-Ala-Ala-Phe-Leu-PyrS-3Thi-BztA-Gln-NH2] | > 20 µM | 0.236 µM | 
6 | CC(=O)N1CCC[C@]12CC=CCCCC1(CCCC=CCCCOC(=O)N3CC[C@@](C(=O)N[C@@H](Cc4ccsc4)C(=O)N[C@@H](Cc4csc5ccccc45)C(=O)N[C@@H](Cc4ccccc4)C(N)=O)(C3)NC(=O)[C@H](CC(C)C)NC(=O)[C@H](Cc3ccccc3)NC(=O)[C@H](C)NC(=O)[C@H](CCC(N)=O)NC(=O)[C@H](Cc3cccc(C(=O)O)c3)NC(=O)[C@H](CC(=O)O)NC1=O)NC(=O)[C@H](CC(C)(C)C)NC(=O)[C@H](CC(=O)O)NC2=O (stereo partly drawn) [I-1912, Ac-PL3-Asp-Npg-B5-Asp-3COOHF-Gln-Ala-Phe-Leu-PyrS2-3Thi-BztA-Phe-NH2] |  | 0.013 µM | IC50 ([1]; read-out: NanoBRET Abs IC50): 11.5 µM
7 | CC(=O)N1CCC[C@]12CC=CCCCC1(CCCC=CCCCOC(=O)N3CC[C@@](C(=O)N[C@@H](Cc4ccccc4Cl)C(=O)N[C@@H](Cc4csc5ccccc45)C(=O)N[C@@H](CO)C(N)=O)(C3)NC(=O)[C@H](C)NC(=O)[C@H](Cc3ccccc3)NC(=O)[C@H](C)NC(=O)[C@H](C)NC(=O)[C@H](Cc3cccc(C(=O)O)c3)NC(=O)[C@H](CC(=O)O)NC1=O)NC(=O)[C@H](CC(C)(C)C)NC(=O)[C@H](CC(=O)O)NC2=O (stereo partly drawn) [I-1849, Ac-PL3-Asp-Npg-B5-Asp-3COOHF-Ala-Ala-Phe-Ala-PyrS2-2C1F-BztA-Ser-NH2] |  | 0.019 µM | IC50 ([1]; read-out: NanoBRET Abs IC50): 8.8 µM
8 | CC(=O)N1CCC[C@]12CCCCCCC1(CCCCCCCCCOC(=O)N3CC[C@@](C(=O)N[C@@H](Cc4ccsc4)C(=O)N[C@@H](Cc4csc5ccccc45)C(=O)N[C@@H](CCC(N)=O)C(N)=O)(C3)NC(=O)[C@H](CC(C)C)NC(=O)[C@H](Cc3ccccc3)NC(=O)[C@H](C)NC(=O)[C@H](C)NC(=O)[C@H](CN(CC(=O)O)CC(F)(F)F)NC(=O)[C@H](CC(=O)O)NC1=O)NC(=O)[C@H](CC(C)(C)C)NC(=O)[C@H](CC(=O)O)NC2=O (stereo partly drawn) [I-1697, Ac-PL3-Asp-Npg-B5-Asp-TfeGA-Ala-Ala-Phe-Leu-PyrS3-3Thi-BztA-Gln-NH2] | > 20 µM | 0.179 µM | 
9 | CC(=O)N1CCC[C@]12CC=CCCCC1(CCCC=CCCCOC(=O)N3CC[C@@](C(=O)N[C@@H](Cc4ccccc4C(F)(F)F)C(=O)N[C@@H](Cc4csc5ccccc45)C(=O)N[C@@H](CO)C(N)=O)(C3)NC(=O)[C@H](Cc3ccccc3)NC(=O)[C@H](Cc3ccccc3)NC(=O)[C@H](C)NC(=O)[C@H](C)NC(=O)[C@H](Cc3ccccc3C(=O)O)NC(=O)[C@H](CC(=O)O)NC1=O)NC(=O)[C@H](CC(C)(C)C)NC(=O)[C@H](CC(=O)O)NC2=O (stereo partly drawn) [I-1659, Ac-PL3-Asp-Npg-B5-Asp-2COOHF-Ala-Ala-Phe-Phe-PyrS2-2F3MeF-BztA-Ser-NH2] | 11.4 µM | 0.108 µM | 
10 | CC(=O)N1CCC[C@]12CC=CCCCC1(CCCC=CCCCOC(=O)N3CC[C@@](C(=O)N[C@@H](Cc4ccccc4)C(=O)N[C@@H](Cc4csc5ccccc45)C(=O)N[C@@H](CCCCN)C(N)=O)(C3)NC(=O)[C@H](CC(C)C)NC(=O)[C@H](Cc3ccccc3)NC(=O)[C@H](C)NC(=O)[C@H](CCCCNC(C)C)NC(=O)[C@H]([C@@H](C)O)NC(=O)[C@H](CC(=O)O)NC1=O)NC(=O)[C@H](CC1CCCCC1)NC(=O)[C@H](CC(N)=O)NC2=O (stereo partly drawn) [I-2450, Ac-PL3-Asn-Cha-B5-Asp-Thr-iPrLys-Ala-Phe-Leu-PyrS2-Phe-BztA-Lys-NH2] | > 20 µM | 0.063 µM | 
11 | CC(=O)N1CCC[C@]12CC=CCCCC1(CCCC=CCCCOC(=O)N3CC[C@@](C(=O)N[C@@H](Cc4ccccc4Cl)C(=O)N[C@@H](Cc4csc5ccccc45)C(=O)N[C@@H](CCC(N)=O)C(N)=O)(C3)NC(=O)[C@H](CC(N)=O)NC(=O)[C@H](Cc3ccccc3)NC(=O)[C@H](C)NC(=O)[C@H](C)NC(=O)[C@H](CN(CC(=O)O)C(C)C)NC(=O)[C@H](CC(=O)O)NC1=O)NC(=O)[C@H](CC(C)(C)C)NC(=O)[C@H](CC(=O)O)NC2=O (stereo partly drawn) [I-1451, Ac-PL3-Asp-Npg-B5-Asp-[iPr]GA-Ala-Ala-Phe-Asn-PyrS2-2C1F-BztA-Gln-NH2] | 26.2 µM | 0.013 µM | 
12 | CC(=O)N1CCC[C@]12CC=CCCCC1(CCCC=CCCCOC(=O)N3CC[C@@](C(=O)N[C@@H](Cc4ccsc4)C(=O)N[C@@H](Cc4ccc5ccccc5c4)C(=O)N[C@@H](CO)C(N)=O)(C3)NC(=O)[C@H](CC(C)C)NC(=O)[C@H](Cc3ccccc3)NC(=O)[C@H](C)NC(=O)[C@H](C)NC(=O)[C@H](CC(=O)O)NC(=O)[C@H](CC(=O)O)NC1=O)NC(=O)[C@H](CC(C)(C)C)NC(=O)[C@H](CC(=O)O)NC2=O (stereo partly drawn) [I-1239, Ac-PL3-Asp-Npg-B5-Asp-Asp-Ala-Ala-Phe-Leu-PyrS2-3Thi-2NapA-Ser-NH2] | 31.8 µM | 0.033 µM | 
13 | CC(=O)N1CCC[C@]12CC=CCCCC1(CCCC=CCCCOC(=O)N3CC[C@@](C(=O)N[C@@H](Cc4ccsc4)C(=O)N[C@@H](Cc4c[nH]c5ccccc45)C(=O)N[C@@H](CCC(N)=O)C(N)=O)(C3)NC(=O)[C@H](CC(C)C)NC(=O)[C@H](Cc3ccccc3)NC(=O)[C@H](C)NC(=O)[C@H](C)NC(=O)[C@H](CC(=O)O)NC(=O)[C@H](CC(=O)O)NC1=O)NC(=O)[C@H](CC(C)(C)C)NC(=O)[C@H](CC(=O)O)NC2=O (stereo partly drawn) [I-1431, Ac-PL3-Asp-Npg-B5-Asp-Asp-Ala-Ala-Phe-Leu-PyrS2-3Thi-Trp-Gln-NH2] | 14.6 µM | 0.044 µM | IC50 ([2]; fluorescence polarization, beta-catenin, read-out: FP EC50): 0.034 µM
